“Also recorded” adds a separate entry of the source.
Assays:
[1] = system: inflammation induced in the ear by picryl chloride; assay: Picryl chloride-induced ear swelling; assay type: in vivo, BALB/C mice
Experimental: Female BALB/C mice (Simmons Laboratories), 7 weeks old, were housed at 23-25° C. in groups of no more than 5 per cage [28 cm (L)×18 cm (W)×13 cm (H)]. They were allowed to acclimatize to standard lighting and temperature conditions for at least 1 week, with food and water available ad lib, before the experiment began. Five to ten animals were randomly assigned to each treatment group each test day, and all experiments were repeated at least twice to confirm reproducibility. To reduce error due to slight differences in responses to the irritant of animals from different shipments, tests of each agent were performed as separate experiments in which experimental and control animals were drawn from the same shipment.
In the experiments each animal was anesthetized with 1 mg of pentobarbital sodium solution (50 mg/kg, Nembutal, Abbott Laboratories, Abbott park, Ill.). Baseline ear thickness was measured for both ears with a spring-loaded micrometer (Swiss Precision Instruments, Los Angeles, Calif.). Ear thickness was expressed in units of 10^−3 cm; the average thickness of unstimulated ears was approximately 25-30×10^−3 cm. After baseline measurements were taken, one of six solutions was injected IP. Control animals received 0.2 ml of sterile saline, and experimental animals received Ac-α-MSH (11-13)-NH2, i.e., Ac-Lys-Pro-Val-NH2), Ac[D-Lys^11] α-MSH (11-13)-NH2, Ac[D-Pro^12] α-MSH (11-13)-NH2, Ac[D-Val^13] α-MSH (11-13)-NH2 or Ac-[D-Lys^11, D-Val^13] α-MSH (11-13)-NH2 in the same volume of saline. […] The doses of the tripeptides were 10 μg ([…]), 20 μg ([…]), 40 μg (1.04×10^−7 M), and 80 μg (2.08×10^−7 M). Immediately after saline or α-MSH injection, a micropipette was used to coat both sides of each ear with 10 μl (40 μl per mouse) of a 0.5% picryl chloride (Polysciences, Warrington, Pa.) solution in acetone.
Ear thickness was remeasured 3 and 6 h after picryl chloride application. Swelling was determined by subtracting baseline thickness from the measurements for each ear at 3 and 6 h. The differences for both ears were then averaged for the final analysis.
Repeated-measure ANOVA techniques were used to determine if there was an overall difference among group data for each peptide tested in separate experiments. In those cases in which the ANOVA yielded significant results, Dunnett's test was then used to compare the effects of peptide doses with control (saline) data for each of the two time periods, 3 and 6 h.

[2] = kind of activity not given; cited from earlier work
TNF-α and iNOS mRNA = assay: Northern blot of TNF-α and iNOS mRNA in activated microglia; assay type: cell-based, murine
Experimental: Total cellular RNA was extracted from 10^6 adherent microglial cells plated in six-well tissue culture plates (Corning). Electrophoresis of RNA samples (10 μg/lane) was performed in 1% agarose/2.2 M formaldehyde gels and the gels subsequently blotted onto nylon filters by capillary action and baked for 2 h before prehybridization. The cDNA fragments encoding murine TNF-α and mouse macrophage iNOS were ^32P-labeled using the Ready-To-Go DNA Labeling Kit (Pharmacia, Uppsala, Sweden) before hybridization of nylon filters and autoradiography. Blots were subsequently rehybridized with human glyceraldehyde-3-phosphate dehydrogenase (G-3-PDH) cDNA probe as an internal control (Clontech Laboratories, Inc., Palo Alto, Calif.).

C. albicans [3] = assay: Horse serum-induced germ tube formation of C. albicans; assay type: cell-based; conditions: 10^−6M, 60 minutes at 37° C.
Experimental: C. albicans from stationary phase cultures were washed twice with distilled water and suspended in HBSS to a final concentration of 2×10^6/ml. Hyphal growth was induced by addition of 10% inactivated horse serum (GIBCO/BRL, Great Britain) to yeast incubated for 45 minutes at 37° C. with continuous shaking. Horse serum was removed by washing cells twice with HBSS and incubation was continued for 60 minutes at 37° C. in the presence of α-MSH (1-13), α-MSH (6-13) or α-MSH (11-13) at a concentration of 10^−6M with continuous shaking. The percentage of filamentous cells was evaluated under a light microscope with the aid of hemocytometer. Experiments were run in triplicate and at least 200 cells were scored. Photomicrographs were taken with an MC100 camera attached to an Axioskop Zeiss microscope.

IL-6 = IL-6 production by activated N9 microglia; assay type: cell-based, murine; conditions: microglia stimulated with LPS+IFN-γ for 24 hr, micromolar concentrations
Experimental: (§1) The N9 clone of murine microglial cells was obtained by immortalization of embryonic brain cultures with the 3RV retrovirus carrying an activated v-myconcogene. N9 cells were cultured in T-75-cm^2 culture flasks (Corning, Cambridge, Mass.) and maintained at 37° C. in a humidified incubator under 5% CO2 atmosphere in RPMI 1640 supplemented with 2 mM L-glutamine, 50 U/mL penicillin G, 50 μg/mL streptomycin sulfate (GIBCO-BBL, Paisley, UK), and 10% heat-inactivated fetal bovine serum (FBS, Hyclone Lab, Inc., Logan, Utah) until experiments were performed. Cells were used between the first and the tenth passage.
(§2) Sub-confluent microglial cells were washed twice with phosphate-buffered saline (PBS) and incubated with trypsin 0.025% and ethylenediaminetetraacetate (EDTA) 0.02% without calcium and magnesium for 3 min. at 37° C. to detach the cells from the culture flask. Cells were then resuspended in medium and incubated in 24-well tissue-culture plates at a concentration of 2×10^5 cells/mL for 16 h in a humidified incubator (37° C., 5% CO2). Growth medium was removed and cell monolayers were stimulated with 10 ng/mL lipopolysaccharide (LPS, from Escherichia coli 055:B5, Sigma Chemical Co., St. Louis, Mo.) plus 1 U/ml, murine IFN-γ (Sigma). To test effects of melanocortin peptides, concentrations (1, 10, 25, 50 and 100 μM) of α-MSH (1-13), α-MSH (11-13), and ACTH (1-24) (Sigma) were dissolved in medium and added to wells 10 min before treatment with LPS+IFN-γ. […] Viability of cells was assessed by trypan blue exclusion for each experimental condition; it was consistently >98%. […]
(§3) TNF-α bioactivity was measured in supernatants of cell cultures by standard cytotoxicity assay using L929 cells and recombinant human TNF-α (Sigma) as standard. […] IL-6 was measured using a commercial murine enzyme-linked immunosorbent assay (ELISA: RPN 2714, Amersham, Little Chalfont, UK).
(§4) Effects of melanocortin peptides on cytokine and NO production were evaluated by repeated measures analysis of variance followed by Dunnet's test for specific comparisons. […]

human neutrophils = assay: C. albicans killing by human neutrophils; assay type: cell-based; conditions: 2 hours at 37° C., vs. medium
Experimental: Venous blood (20 ml) from healthy volunteers was anticoagulated with heparin. Neutrophils were isolated using dextran sedimentation and Ficoll-Hypaque (Sigma Chemical Co., St. Louis, Mi., USA) centrifugation. Erythrocytes were lysed via hypotonic shock. Neutrophils represented at least 97% of the cell suspension. Cell viability, estimated by trypan blue exclusion, was >98%. Neutrophils were suspended to a final concentration in HBSS. C. albicans (1×10^6) were opsonized with human AB serum in a shaking water bath for 30 minutes at 37° C. Organisms were then incubated with neutrophils in medium or in medium with α-MSH (1-13) or α-MSH (11-13) in concentrations of 10^−15 M to 10^−4 M in a shaking water bath for 2 hours at 37° C. After incubation, the culture tubes were placed on ice to stop growth and extracellular organisms were washed twice with centrifugation at 1000×g at 4° C. A 2.5% sodium desoxycholoate solution was added to obtain a suspension of 10^6 cells/ml. Two 1/100 serial dilutions in HBSS were made to obtain a final suspension of 100 cells/ml. Aliquots of 1 ml were dispensed on blood agar plates and incubated for 48 hours at 37° C. Colony forming units (CFUs) were counted at the end of the incubation period. Experiments were run in triplicate and repeated using blood from 5 different donors.

TNF-α = TNF-α production by activated N9 microglia; assay type: cell-based, murine; conditions: microglia stimulated with LPS+IFN-γ for 24 hr, micromolar concentrations
Experimental: as §1, §2, §3, §4

NO2^− = assay: Nitrite (NO) production by activated N9 microglia; assay type: cell-based, murine; conditions: microglia stimulated with LPS+IFN-γ for 24 hr, micromolar concentrations
Experimental: as §1, §2
NO is rapidly oxidized to nitrite (NO2) in culture medium, and nitrite concentration is an indicator of NO production. […] Samples were incubated at room temperature for 10 min and absorbency was measured at 540 nm with the use of a microplate reader. Nitrite concentrations were calculated using a sodium nitrite standard curve.
as §4

cAMP = cAMP accumulation in N9 cells; assay type: cell-based, murine; conditions: resting cells and cells incubated with LPS+IFN-γ
Experimental: cAMP accumulation in N9 cells was measured as previously described. Briefly, cells in six-well plates were co-incubated at 37° C. with (1) medium; (2) forskolin (100 μM); (3) LPS (10 ng/mL)+IFN-γ (1 U/mL); (4) α-MSH (1-13) or α-MSH (11-13) (1, 10, 50 μM); (5) LPS+IFN-γ and either α-MSN (1-13) or α-MSH (11-13) (10 μM). Reactions were stopped after 3 min by aspirating supernatants, immediately adding 1 mL ethanol at −20° C. and freezing. cAMP content in the ethanol-soluble fraction was measured using an enzyme immunoassay kit (Amersham).

C. albicans [4] = assay: C. albicans colony forming units (candidacidal activity); assay type: cell-based
Experimental: C. albicans (1×10^6/ml in HBSS) was incubated in the presence or absence or α-MSH (1-13) or α-MSH (11-13) at concentrations in the range of 10^−15 M to 10^−6 M for 2 hours at 37° C. Cells were then washed in cold distilled water and diluted with HBSS to a concentration of 100 organisms/ml. One-ml aliquots were dispensed on blood agar plates and incubated for 48 hours at 37° C. Organism viability was estimated from the number of colonies formed. In subsequent experiments using familiar procedures we compared activity of α-MSH (4-10), α-MSH (6-13), α-MSH (11-13), ACTH (1-39), (18-39) and fluconazole, the latter an established antifungal agent. Melanocortin peptides and fluconazole were tested in concentrations of 10^−6 M to 10^−4 M. There were at least six replicates for each concentration of peptide.

fever = conditions: relative to parent peptide or to the 11-13 sequence; cited from earlier work

Substance: Ac-[D-Lys^11]α-MSH (11-13)-NH2
- % Inhibition of swelling ([1]; 10 μg IP, 3 h): 23%
- % Inhibition of swelling ([1]; 10 μg IP, 6 h): 17%
- % Inhibition of swelling ([1]; 20 μg IP, 3 h): 25%
- % Inhibition of swelling ([1]; 20 μg IP, 6 h): 16%
- % Inhibition of swelling ([1]; 40 μg IP, 3 h): 35%
- % Inhibition of swelling ([1]; 40 μg IP, 6 h): 37%
- % Inhibition of swelling ([1]; 80 μg IP, 3 h): 34%
- % Inhibition of swelling ([1]; 80 μg IP, 6 h): 29%
- overall effect on ear inflammation (ANOVA) ([1]; 10-80 μg IP, 3 and 6 h): significantly reduced inflammation
- general potency relative to L-form tripeptide [2]: same general potency as the L-form of the tripeptide α-MSH (11-13)

Substance: Lys-Pro-Val (KPV; Designed polypeptide with anti-inflammatory, anti-bacterial, anti-fungal and antipyretic properties.) [α-MSH (11-13), C-terminal tripeptide KPV of α-MSH]
- mRNA for TNF-α and iNOS (Northern blot) (TNF-α and iNOS mRNA): inhibition of mRNA transaction for TNF-α and iNOS
- reduction in the number of filamentous cells (inhibition of germination) (C. albicans [3]): 54-58%
- reduction of production of IL-6 (IL-6): 50%
- killing of C. albicans by human neutrophils (human neutrophils): enhanced the killing
- reduction of production of TNF-α (TNF-α): 45%
- reduction of production of NO2^− (NO2^−): 40%
- cAMP accumulation (cAMP): increased cAMP accumlation
- relative potency in reducing C. albicans viability (C. albicans [4]; 10^−4M melanocortin peptides): the most effective
- effect on C. albicans colony forming units (CFU) (C. albicans [4]; 2 hours at 37° C., vs. control): greatly reduced; also recorded: significantly decreased C. albicans colony forming units; also recorded: inhibitory effect

Substance: [Nle^4, D-Phe^7]-α-MSH
- antipyretic potency (fever): approximately ten times more potent than the parent peptide in reducing fever

Source: US6969590B2, “Use of a polypeptide for treatment of pruritus in animals” (Zengen, Inc., priority 2001, dated 2005)
